Experimental data taken from ChEMBL document CHEMBL5352497, “Aromatic hydrazides: A potential solution for Acinetobacter baumannii infections” (Eur J Med Chem, 2023).
≈ marks a conversion by molar mass, not a printed value.

What was measured:
Erythrocyte = assay: Hemolytic activity in mouse RBC at 32 ug/ml incubated for 1 hr; type: toxicity, cell-based; conditions: erythrocyte, 1 h, dose 32 µg/ml
HEK293 = assay: Cytotoxicity against HEK293 cells at 8 ug/ml; type: toxicity, cell-based; conditions: human, dose 8 µg/ml
[1] = Hemolytic activity in mouse RBC at 8 ug/ml incubated for 1 hr; type: toxicity, cell-based, Erythrocyte; conditions: red blood cells (erythrocytes), at 8 µg/mL, read-out: Activity
Staphylococcus aureus = assay: Antibacterial activity against Staphylococcus aureus ATCC 25923; type: functional
[2] = system: Staphylococcus epidermidis; assay: Antibacterial activity against Staphylococcus epidermidis ATCC 12228; type: functional
Enterobacter cloacae = assay: Antibacterial activity against Enterobacter cloacae ATCC 13047; type: functional
Salmonella enterica = assay: Antibacterial activity against Salmonella enterica ATCC 14028; type: functional
Acinetobacter baumannii [3] = assay: Antibacterial activity against Acinetobacter baumannii ATCC 19606; type: functional
Klebsiella pneumoniae = assay: Antibacterial activity against Klebsiella pneumoniae ATCC 27736; type: functional
Acinetobacter baumannii [4] = assay: Antibacterial activity against Acinetobacter baumannii BAA1605; type: functional
Bacillus anthracis = assay: Antibacterial activity against Bacillus anthracis Sterne F32; type: functional
Pseudomonas aeruginosa = assay: Antibacterial activity against Pseudomonas aeruginosa ATCC 27853; type: functional
Escherichia coli = assay: Antibacterial activity against Escherichia coli MC1061; type: functional

Row | SMILES | Activity (Erythrocyte) | Activity (HEK293) | hemolysis at 1 h, 8 ug/ml [1] [%] | MIC (Staphylococcus aureus) [µg/mL] | MIC [2] [µg/mL] | MIC (Enterobacter cloacae) [µg/mL] | MIC (Salmonella enterica) [µg/mL] | MIC (Acinetobacter baumannii [3]) [µg/mL] | MIC (Klebsiella pneumoniae) [µg/mL] | MIC (Acinetobacter baumannii [4]) [µg/mL] | MIC (Bacillus anthracis) [µg/mL] | MIC (Pseudomonas aeruginosa) [µg/mL] | MIC (Escherichia coli) [µg/mL]
1 | O=C(NNc1cccc(F)c1)c1ccccn1 | Non-Toxic | Non-Toxic | < 10 | – | – | – | – | – | – | – | – | – | –
2 | CCOC(=O)CNNC(=O)c1cccc(F)n1 | Non-Toxic | Non-Toxic | < 10 | – | – | – | – | – | – | – | – | – | –
3 | O=C(NNc1ccc(Cl)cc1)c1cc2ccccc2[nH]1 | Non-Toxic | Non-Toxic | < 10 | > 64 | > 64 | > 64 | > 64 | 0.5 (≈ 1.75 µM) | > 64 | 0.25 (≈ 0.875 µM) | > 64 | > 64 | > 64
4 | O=C(NNc1cccc(F)c1)c1cccnc1 | Non-Toxic | Non-Toxic | < 10 | – | – | – | – | – | – | – | – | – | –
5 | O=C(NNc1ccc(Cl)cc1)c1ccc(F)cc1F | Non-Toxic | Non-Toxic | < 10 | > 64 | > 64 | 16 (≈ 56.6 µM) | > 64 | 0.25 (≈ 0.884 µM) | > 64 | 0.25 (≈ 0.884 µM) | > 64 | > 64 | 16 (≈ 56.6 µM)
6 | O=C(NNc1ccc(Cl)cc1)c1cccnc1 | Non-Toxic | Non-Toxic | < 10 | – | – | – | – | – | – | – | – | – | –
7 | CCOC(=O)CNNC(=O)c1ccc(F)cn1 | Non-Toxic | Non-Toxic | < 10 | – | – | – | – | – | – | – | – | – | –
8 | C=CC(=O)NNc1ccc(Cl)cc1 | Non-Toxic | Non-Toxic | < 10 | 64 (≈ 325 µM) | 64 (≈ 325 µM) | 16 (≈ 81.4 µM) | 16 (≈ 81.4 µM) | 0.25 (≈ 1.27 µM) | 16 (≈ 81.4 µM) | 0.25 (≈ 1.27 µM) | > 64 | > 64 | 16 (≈ 81.4 µM)
9 | O=C(NNc1cccc(F)c1)c1ccc(Br)cn1 | Non-Toxic | Non-Toxic | < 10 | – | – | – | – | – | – | – | – | – | –
10 | O=C(NNc1ccc(Cl)cc1)c1nc(F)ccc1F | Non-Toxic | Non-Toxic | < 10 | – | – | – | – | – | – | – | – | – | –
11 | CCC(=O)NNc1ccc(Cl)cc1 | Non-Toxic | Non-Toxic | < 10 | > 64 | > 64 | 16 (≈ 80.5 µM) | 64 (≈ 322 µM) | ≤ 0.125 | 16 (≈ 80.5 µM) | ≤ 0.125 | > 64 | > 64 | 16 (≈ 80.5 µM)
12 | O=C(NNc1cccc(F)c1)c1cc2ccccc2[nH]1 | Non-Toxic | Non-Toxic | < 10 | – | – | – | – | – | – | – | – | – | –
13 | O=C(NNc1cccc(F)c1)c1cccc(F)n1 | Non-Toxic | Non-Toxic | < 10 | – | – | – | – | – | – | – | – | – | –
14 | CCOC(=O)CNNC(=O)c1ccccn1 | Non-Toxic | Non-Toxic | < 10 | – | – | – | – | – | – | – | – | – | –
15 | CCOC(=O)CNNC(=O)c1ccc2ccccc2n1 | Non-Toxic | Non-Toxic | < 10 | > 64 | > 64 | > 64 | > 64 | > 64 | > 64 | > 64 | > 64 | > 64 | > 64
16 | O=C(NNc1cccc(F)c1)c1cnc2ccccc2n1 | Non-Toxic | Non-Toxic | < 10 | – | – | – | – | – | – | – | – | – | –
17 | O=C(NNC1CCCCC1)c1ccc(F)cc1F | Non-Toxic | Non-Toxic | < 10 | – | – | – | – | – | – | – | – | – | –
18 | O=C(NNc1cccc(F)c1)c1nc(F)ccc1F | Non-Toxic | Non-Toxic | < 10 | – | – | – | – | – | – | – | – | – | –

Row | SMILES | Activity (Erythrocyte) | Activity (HEK293) | hemolysis at 1 h, 8 ug/ml [1] [%] | MIC (Staphylococcus aureus) [µg/mL] | MIC [2] [µg/mL] | MIC (Enterobacter cloacae) [µg/mL] | MIC (Salmonella enterica) [µg/mL] | MIC (Acinetobacter baumannii [3]) [µg/mL] | MIC (Klebsiella pneumoniae) [µg/mL] | MIC (Acinetobacter baumannii [4]) [µg/mL] | MIC (Bacillus anthracis) [µg/mL] | MIC (Pseudomonas aeruginosa) [µg/mL] | MIC (Escherichia coli) [µg/mL]
19 | O=C(NNc1cccc(F)c1)c1cnccn1 | Non-Toxic | Non-Toxic | < 10 | – | – | – | – | – | – | – | – | – | –
20 | COc1cccc(NNC(=O)c2ccccn2)c1 | Non-Toxic | Non-Toxic | < 10 | – | – | – | – | – | – | – | – | – | –
21 | O=C(NNc1ccc(F)cc1)c1ccc(F)cn1 | Non-Toxic | Non-Toxic | < 10 | > 64 | > 64 | 64 (≈ 257 µM) | 64 (≈ 257 µM) | 0.5 (≈ 2.01 µM) | 64 (≈ 257 µM) | 0.25 (≈ 1 µM) | > 64 | > 64 | 64 (≈ 257 µM)
22 | O=C(NNc1cccc(F)c1)c1ccco1 | Non-Toxic | Non-Toxic | < 10 | – | – | – | – | – | – | – | – | – | –
23 | O=C(NNc1ccc(Cl)cc1)c1ncc(F)cc1F | Non-Toxic | Non-Toxic | < 10 | – | – | – | – | – | – | – | – | – | –
24 | CCOC(=O)CNNC(=O)c1cnccn1 | Non-Toxic | Non-Toxic | < 10 | – | – | – | – | – | – | – | – | – | –
25 | O=C(NNc1cccc(F)c1)c1cccc(Br)n1 | Non-Toxic | Non-Toxic | < 10 | – | – | – | – | – | – | – | – | – | –
26 | O=C(NNC1CCCCC1)c1ccc2ccccc2n1 | Non-Toxic | Non-Toxic | < 10 | > 64 | > 64 | > 64 | > 64 | > 64 | > 64 | > 64 | > 64 | > 64 | 64 (≈ 238 µM)
27 | O=C(NNc1ccc(Cl)cc1)c1cccc(F)n1 | Non-Toxic | Non-Toxic | < 10 | > 64 | > 64 | 16 (≈ 60.2 µM) | 16 (≈ 60.2 µM) | ≤ 0.125 | 16 (≈ 60.2 µM) | ≤ 0.125 | > 64 | > 64 | 16 (≈ 60.2 µM)
28 | O=C(NNc1cccc(F)c1)c1ccc(F)cc1F | Non-Toxic | Non-Toxic | < 10 | – | – | – | – | – | – | – | – | – | –
29 | O=C(NNC1CCCCC1)c1cnccn1 | Non-Toxic | Non-Toxic | < 10 | – | – | – | – | – | – | – | – | – | –
30 | O=C(NNc1ccc(Cl)cc1)c1cnccn1 | Non-Toxic | Non-Toxic | < 10 | – | – | – | – | – | – | – | – | – | –
31 | O=C(NNc1cccc(F)c1)c1ncc(F)cc1F | Non-Toxic | Non-Toxic | < 10 | – | – | – | – | – | – | – | – | – | –
32 | CCOC(=O)CNNC(=O)c1ccc(F)cc1F | Non-Toxic | Non-Toxic | < 10 | – | – | – | – | – | – | – | – | – | –
33 | O=C(NNC1CCCCC1)c1cccnc1 | Non-Toxic | Non-Toxic | < 10 | – | – | – | – | – | – | – | – | – | –
34 | O=C(NNc1cccc(F)c1)c1ccccc1 | Non-Toxic | Non-Toxic | < 10 | – | – | – | – | – | – | – | – | – | –
35 | O=C(NNc1ccc(Cl)cc1)c1cnc2ccccc2n1 | Non-Toxic | Non-Toxic | < 10 | – | – | – | – | – | – | – | – | – | –
36 | CCC(=O)NNc1cccc(F)c1 | Non-Toxic | Non-Toxic | < 10 | – | – | – | – | – | – | – | – | – | –
